Source: patent publication US20190216761A1, “COMPOSITIONS COMPRISING 15-HEPE AND METHODS OF USING THE SAME” (Afimmune Limited, priority 2015, published 2019)

Experiments:
Format in all cases: cell-based
rPPARα = molecular target: T1, rPPARα (Rattus norvegicus, UniProt P37230); test: PPAR antagonist reporter assay (reference agonist at EC80)
T1 construct: expressed in transfected cells
T1 sequence (P37230 239-466 limits assumed): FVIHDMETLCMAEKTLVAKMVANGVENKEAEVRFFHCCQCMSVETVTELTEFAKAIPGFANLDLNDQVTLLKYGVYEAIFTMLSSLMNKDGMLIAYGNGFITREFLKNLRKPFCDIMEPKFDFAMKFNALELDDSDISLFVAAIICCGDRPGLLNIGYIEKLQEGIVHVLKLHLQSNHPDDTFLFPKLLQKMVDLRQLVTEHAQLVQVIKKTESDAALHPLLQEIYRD
Description: (§1) This study utilized proprietary reporter cells expressing a hybrid receptor comprising the N-terminal Gal4 DNA binding domain fused to the ligand binding domain of the specific human nuclear receptor (hPPARα, hPPARδ, and hPPARγ) and rat nuclear receptor (rPPARα, rPPARδ, and rPPARγ). The reporter vectors used in this Example comprise the firefly luciferase gene functionally linked to the Gal4 upstream activation sequence.
(§2) Nuclear Receptor assay was performed by suspending Reporter Cells in CRM containing 10% charcoal stripped FBS. 2×-EC80 concentrations of the appropriate reference agonist were then added to the Reporter Cell suspension, and 100 μL of the mixture dispensed into wells of a white 96-well plate. Test compounds were diluted using compound screening medium (CSM) containing 10% charcoal stripped FBS to generate “2×-concentration” treatment media. Immediately after this dilution step, 100 μL of each diluted 2×-concentration treatment medium was dispensed (in triplicate) into the Reporter Cell-containing assay wells.
(§3) After incubation at 37° C. for 24 hours, the treatment media was discarded. Each well was rinsed once with LCM Buffer; LCM substrate was then added. After incubation for 30 minutes at 37° C., fluorescence was measured to determine the relative number of live cells per assay well. LCM substrate was then discarded and 100 μL of Luciferase Detection Reagent substrate was added to each well. RLUs were quantified from each well to determine nuclear receptor activities.

hPPARα = molecular target: T2, hPPARα (Homo sapiens, UniProt Q07869); test: as above
T2 construct: expressed in transfected cells
T2 sequence (Q07869 239-466 limits assumed): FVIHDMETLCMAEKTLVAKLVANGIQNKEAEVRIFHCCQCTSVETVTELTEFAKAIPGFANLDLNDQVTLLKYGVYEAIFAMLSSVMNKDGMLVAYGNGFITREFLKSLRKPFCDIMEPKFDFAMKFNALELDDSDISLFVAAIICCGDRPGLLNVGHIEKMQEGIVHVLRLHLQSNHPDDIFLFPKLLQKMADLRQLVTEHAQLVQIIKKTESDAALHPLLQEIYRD
Description: as §1, §2, §3

hPPARδ = molecular target: T3, hPPARδ (Homo sapiens, UniProt Q03181); test: as above
T3 construct: expressed in transfected cells
T3 sequence (Q03181 211-439 limits assumed): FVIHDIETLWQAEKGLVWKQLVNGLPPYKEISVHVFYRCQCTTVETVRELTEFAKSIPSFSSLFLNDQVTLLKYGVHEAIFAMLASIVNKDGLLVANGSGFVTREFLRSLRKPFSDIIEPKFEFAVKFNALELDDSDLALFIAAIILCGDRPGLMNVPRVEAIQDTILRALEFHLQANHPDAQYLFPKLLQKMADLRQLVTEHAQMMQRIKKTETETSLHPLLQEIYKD
Description: as §1, §2, §3

hPPARα Reporter Cells = test: Live cell multiplex assay
Description: as §1, §2, §3

hPPARγ Reporter Cells = test: Live cell multiplex assay
Description: as §1, §2, §3

hPPARδ Reporter Cells = test: Live cell multiplex assay
Description: as §1, §2, §3

rPPARδ Reporter Cells = test: Live cell multiplex assay
Description: as §1, §2, §3

rPPARα Reporter Cells = test: Live cell multiplex assay
Description: as §1, §2, §3

rPPARγ Reporter Cells = test: Live cell multiplex assay
Description: as §1, §2, §3

CC/C=C\C/C=C\C/C=C\C/C=C\C/C=C\CCCC(=O)OCC [EPA-EE, EPA ethyl ester, reference compound]
% Inhibition of agonist-stimulated receptor activity vs. 0.10% DMSO, rPPAR-α (rPPARα; 137 nM): 51% | % Inhibition of agonist-stimulated receptor activity vs. 0.10% DMSO, rPPAR-α (rPPARα; 412 nM): 20% | % Inhibition of agonist-stimulated receptor activity vs. 0.10% DMSO, rPPAR-α (rPPARα; 1,235 nM): 5.7% | % Inhibition of agonist-stimulated receptor activity vs. 0.10% DMSO, rPPAR-α (rPPARα; 3,704 nM): 4.2% | % Inhibition of agonist-stimulated receptor activity vs. 0.10% DMSO, rPPAR-α (rPPARα; 11,111 nM): −4.7% | % Inhibition of agonist-stimulated receptor activity vs. 0.10% DMSO, rPPAR-α (rPPARα; 33,333 nM): 1.4% | % Inhibition of agonist-stimulated receptor activity vs. 0.10% DMSO, rPPAR-α (rPPARα; 100,000 nM): 13% | % Inhibition of agonist-stimulated receptor activity vs. 0.10% DMSO, rPPAR-α (rPPARα; 300,000 nM): 36% | inhibition of rat PPARs (in words), rPPARα (rPPARα; at higher test concentrations): does not exhibit similar inhibitory activity | % Inhibition of agonist-stimulated receptor activity vs. 0.10% DMSO, hPPAR-α (hPPARα; 137 nM): 35% | % Inhibition of agonist-stimulated receptor activity vs. 0.10% DMSO, hPPAR-α (hPPARα; 412 nM): 20% | % Inhibition of agonist-stimulated receptor activity vs. 0.10% DMSO, hPPAR-α (hPPARα; 1,235 nM): 18% | % Inhibition of agonist-stimulated receptor activity vs. 0.10% DMSO, hPPAR-α (hPPARα; 3,704 nM): 17% | % Inhibition of agonist-stimulated receptor activity vs. 0.10% DMSO, hPPAR-α (hPPARα; 11,111 nM): 11% | % Inhibition of agonist-stimulated receptor activity vs. 0.10% DMSO, hPPAR-α (hPPARα; 33,333 nM): 10% | % Inhibition of agonist-stimulated receptor activity vs. 0.10% DMSO, hPPAR-α (hPPARα; 100,000 nM): 7.1% | % Inhibition of agonist-stimulated receptor activity vs. 0.10% DMSO, hPPAR-α (hPPARα; 300,000 nM): 2.8% | inhibition of human PPARs (in words), hPPARα (hPPARα; at higher test concentrations): does not exhibit similar inhibitory activity | % Inhibition of agonist-stimulated receptor activity vs. 0.10% DMSO, hPPAR-δ (hPPARδ; 137 nM): −3.4% | % Inhibition of agonist-stimulated receptor activity vs. 0.10% DMSO, hPPAR-δ (hPPARδ; 412 nM): −8.9% | % Inhibition of agonist-stimulated receptor activity vs. 0.10% DMSO, hPPAR-δ (hPPARδ; 1,235 nM): −5.5% | % Inhibition of agonist-stimulated receptor activity vs. 0.10% DMSO, hPPAR-δ (hPPARδ; 3,704 nM): −15% | % Inhibition of agonist-stimulated receptor activity vs. 0.10% DMSO, hPPAR-δ (hPPARδ; 11,111 nM): −7.9% | % Inhibition of agonist-stimulated receptor activity vs. 0.10% DMSO, hPPAR-δ (hPPARδ; 33,333 nM): −18% | % Inhibition of agonist-stimulated receptor activity vs. 0.10% DMSO, hPPAR-δ (hPPARδ; 100,000 nM): −6.8% | % Inhibition of agonist-stimulated receptor activity vs. 0.10% DMSO, hPPAR-δ (hPPARδ; 300,000 nM): 11% | inhibition of human PPARs (in words), hPPARδ (hPPARδ; at higher test concentrations): does not exhibit similar inhibitory activity | % Live cells vs. 0.10% DMSO, hPPAR-α (hPPARα Reporter Cells; 137 nM): 99% | % Live cells vs. 0.10% DMSO, hPPAR-α (hPPARα Reporter Cells; 412 nM): 93% | % Live cells vs. 0.10% DMSO, hPPAR-α (hPPARα Reporter Cells; 1,235 nM): 113% | % Live cells vs. 0.10% DMSO, hPPAR-α (hPPARα Reporter Cells; 3,704 nM): 112% | % Live cells vs. 0.10% DMSO, hPPAR-α (hPPARα Reporter Cells; 11,111 nM): 116% | % Live cells vs. 0.10% DMSO, hPPAR-α (hPPARα Reporter Cells; 33,333 nM): 112% | % Live cells vs. 0.10% DMSO, hPPAR-α (hPPARα Reporter Cells; 100,000 nM): 96% | % Live cells vs. 0.10% DMSO, hPPAR-α (hPPARα Reporter Cells; 300,000 nM): 80% | % Live cells vs. 0.10% DMSO, hPPAR-γ (hPPARγ Reporter Cells; 137 nM): 88% | % Live cells vs. 0.10% DMSO, hPPAR-γ (hPPARγ Reporter Cells; 412 nM): 99% | % Live cells vs. 0.10% DMSO, hPPAR-γ (hPPARγ Reporter Cells; 1,235 nM): 101% | % Live cells vs. 0.10% DMSO, hPPAR-γ (hPPARγ Reporter Cells; 3,704 nM): 101% | % Live cells vs. 0.10% DMSO, hPPAR-γ (hPPARγ Reporter Cells; 11,111 nM): 101% | % Live cells vs. 0.10% DMSO, hPPAR-γ (hPPARγ Reporter Cells; 33,333 nM): 102% | % Live cells vs. 0.10% DMSO, hPPAR-γ (hPPARγ Reporter Cells; 100,000 nM): 103% | % Live cells vs. 0.10% DMSO, hPPAR-γ (hPPARγ Reporter Cells; 300,000 nM): 92% | % Live cells vs. 0.10% DMSO, hPPAR-δ (hPPARδ Reporter Cells; 137 nM): 97% | % Live cells vs. 0.10% DMSO, hPPAR-δ (hPPARδ Reporter Cells; 412 nM): 97% | % Live cells vs. 0.10% DMSO, hPPAR-δ (hPPARδ Reporter Cells; 1,235 nM): 99% | % Live cells vs. 0.10% DMSO, hPPAR-δ (hPPARδ Reporter Cells; 3,704 nM): 100% | % Live cells vs. 0.10% DMSO, hPPAR-δ (hPPARδ Reporter Cells; 11,111 nM): 101% | % Live cells vs. 0.10% DMSO, hPPAR-δ (hPPARδ Reporter Cells; 33,333 nM): 101% | % Live cells vs. 0.10% DMSO, hPPAR-δ (hPPARδ Reporter Cells; 100,000 nM): 103% | % Live cells vs. 0.10% DMSO, hPPAR-δ (hPPARδ Reporter Cells; 300,000 nM): 103% | % Live cells vs. 0.10% DMSO, rPPAR-δ (rPPARδ Reporter Cells; 137 nM): 100% | % Live cells vs. 0.10% DMSO, rPPAR-δ (rPPARδ Reporter Cells; 412 nM): 94% | % Live cells vs. 0.10% DMSO, rPPAR-δ (rPPARδ Reporter Cells; 1,235 nM): 98% | % Live cells vs. 0.10% DMSO, rPPAR-δ (rPPARδ Reporter Cells; 3,704 nM): 95% | % Live cells vs. 0.10% DMSO, rPPAR-δ (rPPARδ Reporter Cells; 11,111 nM): 100% | % Live cells vs. 0.10% DMSO, rPPAR-δ (rPPARδ Reporter Cells; 33,333 nM): 99% | % Live cells vs. 0.10% DMSO, rPPAR-δ (rPPARδ Reporter Cells; 100,000 nM): 101% | % Live cells vs. 0.10% DMSO, rPPAR-δ (rPPARδ Reporter Cells; 300,000 nM): 102% | % Live cells vs. 0.10% DMSO, rPPAR-α (rPPARα Reporter Cells; 137 nM): 89% | % Live cells vs. 0.10% DMSO, rPPAR-α (rPPARα Reporter Cells; 412 nM): 98% | % Live cells vs. 0.10% DMSO, rPPAR-α (rPPARα Reporter Cells; 1,235 nM): 102% | % Live cells vs. 0.10% DMSO, rPPAR-α (rPPARα Reporter Cells; 3,704 nM): 103% | % Live cells vs. 0.10% DMSO, rPPAR-α (rPPARα Reporter Cells; 11,111 nM): 102% | % Live cells vs. 0.10% DMSO, rPPAR-α (rPPARα Reporter Cells; 33,333 nM): 100% | % Live cells vs. 0.10% DMSO, rPPAR-α (rPPARα Reporter Cells; 100,000 nM): 95% | % Live cells vs. 0.10% DMSO, rPPAR-α (rPPARα Reporter Cells; 300,000 nM): 94% | % Live cells vs. 0.10% DMSO, rPPAR-γ (rPPARγ Reporter Cells; 137 nM): 97% | % Live cells vs. 0.10% DMSO, rPPAR-γ (rPPARγ Reporter Cells; 412 nM): 101% | % Live cells vs. 0.10% DMSO, rPPAR-γ (rPPARγ Reporter Cells; 1,235 nM): 102% | % Live cells vs. 0.10% DMSO, rPPAR-γ (rPPARγ Reporter Cells; 3,704 nM): 101% | % Live cells vs. 0.10% DMSO, rPPAR-γ (rPPARγ Reporter Cells; 11,111 nM): 100% | % Live cells vs. 0.10% DMSO, rPPAR-γ (rPPARγ Reporter Cells; 33,333 nM): 101% | % Live cells vs. 0.10% DMSO, rPPAR-γ (rPPARγ Reporter Cells; 100,000 nM): 98% | % Live cells vs. 0.10% DMSO, rPPAR-γ (rPPARγ Reporter Cells; 300,000 nM): 102%
